Experimental data from PMC10507085, “Pharmacological inhibition of TBK1/IKKε blunts immunopathology in a murine model of SARS-CoV-2 infection” (Nature Communications, 2023).

How the values were obtained:
Assay in all cases: biochemical
Parameters in all cases: KINOMEscan competition binding, DNA-tagged kinase against immobilised ligand, qPCR read-out
Settings in all cases: read-out: Percent Control
[1] = biological target: TNNI3K (Homo sapiens, UniProt Q59H18)
[2] = biological target: CDKL1 (Homo sapiens, UniProt Q00532)
[3] = biological target: EIF2AK1 (Homo sapiens, UniProt Q9BQI3)
[4] = biological target: ROS1 (Homo sapiens, UniProt P08922)
[5] = biological target: PRKG2 (Homo sapiens, UniProt Q13237)
[6] = biological target: TIE1 (Homo sapiens, UniProt P35590)
[7] = biological target: TBK1 (Homo sapiens, UniProt Q9UHD2)
[8] = biological target: FLT3 (Homo sapiens, UniProt P36888)
[9] = biological target: PKN1 (Homo sapiens, UniProt Q16512)
[10] = biological target: PIK3CG (Homo sapiens, UniProt P48736)
[11] = biological target: LATS1 (Homo sapiens, UniProt O95835)
[12] = biological target: LATS2 (Homo sapiens, UniProt Q9NRM7)
[13] = biological target: TAOK2 (Homo sapiens, UniProt Q9UL54)
[14] = biological target: PRKCE (Homo sapiens, UniProt Q02156)
[15] = biological target: CDKL5 (Homo sapiens, UniProt O76039)
[16] = biological target: SRC (Homo sapiens, UniProt P12931)
[17] = biological target: CLK3 (Homo sapiens, UniProt P49761)
[18] = biological target: MAP4K2 (Homo sapiens, UniProt Q12851)
[19] = biological target: MKNK1 (Homo sapiens, UniProt Q9BUB5)
[20] = biological target: T1, PFCDPK1(P.falciparum) (Plasmodium falciparum, UniProt P62344)
T1 construct: gene CDPK1

Sequence of CLK3 (P49761 whole entry): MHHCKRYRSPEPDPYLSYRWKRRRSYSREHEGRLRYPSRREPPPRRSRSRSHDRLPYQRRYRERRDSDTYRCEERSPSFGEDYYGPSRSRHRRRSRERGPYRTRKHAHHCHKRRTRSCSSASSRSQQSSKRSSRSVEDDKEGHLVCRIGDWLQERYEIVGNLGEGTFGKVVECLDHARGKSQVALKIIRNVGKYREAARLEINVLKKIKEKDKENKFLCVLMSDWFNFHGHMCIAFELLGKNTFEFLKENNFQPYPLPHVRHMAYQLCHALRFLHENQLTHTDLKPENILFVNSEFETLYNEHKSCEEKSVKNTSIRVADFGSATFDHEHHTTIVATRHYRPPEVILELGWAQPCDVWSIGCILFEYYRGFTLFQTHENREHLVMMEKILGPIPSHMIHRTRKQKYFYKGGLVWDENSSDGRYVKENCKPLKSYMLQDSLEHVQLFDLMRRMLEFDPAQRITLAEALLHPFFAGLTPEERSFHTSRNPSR
Sequence of CDKL5 (O76039 whole entry): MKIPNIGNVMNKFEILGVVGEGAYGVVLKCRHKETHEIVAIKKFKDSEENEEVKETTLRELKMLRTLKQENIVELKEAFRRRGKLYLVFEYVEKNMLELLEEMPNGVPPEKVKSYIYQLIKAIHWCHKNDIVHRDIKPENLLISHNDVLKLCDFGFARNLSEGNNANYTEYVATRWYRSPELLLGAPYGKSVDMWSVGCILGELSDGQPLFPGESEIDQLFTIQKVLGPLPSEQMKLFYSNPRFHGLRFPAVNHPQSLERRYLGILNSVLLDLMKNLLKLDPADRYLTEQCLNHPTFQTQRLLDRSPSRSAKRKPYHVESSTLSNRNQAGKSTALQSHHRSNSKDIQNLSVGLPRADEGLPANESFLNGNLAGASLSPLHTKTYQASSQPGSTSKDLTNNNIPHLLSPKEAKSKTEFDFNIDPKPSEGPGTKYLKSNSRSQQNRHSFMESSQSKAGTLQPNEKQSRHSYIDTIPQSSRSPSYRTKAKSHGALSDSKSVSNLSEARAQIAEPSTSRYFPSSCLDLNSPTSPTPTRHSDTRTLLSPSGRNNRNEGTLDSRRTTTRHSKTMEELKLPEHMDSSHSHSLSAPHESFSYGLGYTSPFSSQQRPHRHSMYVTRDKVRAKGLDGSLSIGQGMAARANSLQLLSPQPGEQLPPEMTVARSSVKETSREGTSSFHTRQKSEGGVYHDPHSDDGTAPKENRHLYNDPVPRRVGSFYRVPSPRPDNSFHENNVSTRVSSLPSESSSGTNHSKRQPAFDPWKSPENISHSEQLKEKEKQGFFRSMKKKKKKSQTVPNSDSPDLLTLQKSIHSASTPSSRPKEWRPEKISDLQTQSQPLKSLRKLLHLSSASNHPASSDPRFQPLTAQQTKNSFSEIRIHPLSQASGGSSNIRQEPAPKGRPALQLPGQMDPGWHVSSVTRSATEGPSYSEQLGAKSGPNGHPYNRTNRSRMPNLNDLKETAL
Sequence of TAOK2 (Q9UL54 whole entry): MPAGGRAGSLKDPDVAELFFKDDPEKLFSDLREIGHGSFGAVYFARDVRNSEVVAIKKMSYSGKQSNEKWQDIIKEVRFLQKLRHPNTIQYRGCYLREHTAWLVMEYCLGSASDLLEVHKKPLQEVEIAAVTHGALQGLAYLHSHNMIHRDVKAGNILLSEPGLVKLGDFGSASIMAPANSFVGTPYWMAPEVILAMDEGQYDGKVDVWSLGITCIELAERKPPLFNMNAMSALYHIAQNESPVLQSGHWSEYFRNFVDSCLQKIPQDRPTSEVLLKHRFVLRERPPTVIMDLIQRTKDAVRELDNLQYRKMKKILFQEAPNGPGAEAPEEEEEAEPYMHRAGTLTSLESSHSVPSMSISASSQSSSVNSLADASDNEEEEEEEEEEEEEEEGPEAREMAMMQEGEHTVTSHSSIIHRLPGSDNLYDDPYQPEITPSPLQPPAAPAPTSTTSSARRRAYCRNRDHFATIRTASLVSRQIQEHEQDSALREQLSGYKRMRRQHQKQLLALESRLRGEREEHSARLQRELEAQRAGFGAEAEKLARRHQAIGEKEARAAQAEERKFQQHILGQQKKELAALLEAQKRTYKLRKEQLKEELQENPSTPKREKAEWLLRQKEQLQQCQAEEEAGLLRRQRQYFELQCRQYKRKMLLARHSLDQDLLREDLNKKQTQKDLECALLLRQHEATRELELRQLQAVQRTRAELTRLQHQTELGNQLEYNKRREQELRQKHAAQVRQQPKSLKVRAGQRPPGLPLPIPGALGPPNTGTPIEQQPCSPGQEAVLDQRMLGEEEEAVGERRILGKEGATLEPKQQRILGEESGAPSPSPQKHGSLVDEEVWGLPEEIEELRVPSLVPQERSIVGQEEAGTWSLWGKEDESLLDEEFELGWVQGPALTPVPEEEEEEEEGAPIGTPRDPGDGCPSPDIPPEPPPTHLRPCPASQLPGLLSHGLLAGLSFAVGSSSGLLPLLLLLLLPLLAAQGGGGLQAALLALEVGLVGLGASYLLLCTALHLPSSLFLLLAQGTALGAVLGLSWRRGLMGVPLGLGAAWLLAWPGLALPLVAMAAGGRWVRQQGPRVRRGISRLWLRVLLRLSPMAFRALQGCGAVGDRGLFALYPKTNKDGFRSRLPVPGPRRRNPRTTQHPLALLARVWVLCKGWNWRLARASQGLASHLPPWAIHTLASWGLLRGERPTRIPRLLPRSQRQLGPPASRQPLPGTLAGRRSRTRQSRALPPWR
Sequence of SRC (P12931 whole entry): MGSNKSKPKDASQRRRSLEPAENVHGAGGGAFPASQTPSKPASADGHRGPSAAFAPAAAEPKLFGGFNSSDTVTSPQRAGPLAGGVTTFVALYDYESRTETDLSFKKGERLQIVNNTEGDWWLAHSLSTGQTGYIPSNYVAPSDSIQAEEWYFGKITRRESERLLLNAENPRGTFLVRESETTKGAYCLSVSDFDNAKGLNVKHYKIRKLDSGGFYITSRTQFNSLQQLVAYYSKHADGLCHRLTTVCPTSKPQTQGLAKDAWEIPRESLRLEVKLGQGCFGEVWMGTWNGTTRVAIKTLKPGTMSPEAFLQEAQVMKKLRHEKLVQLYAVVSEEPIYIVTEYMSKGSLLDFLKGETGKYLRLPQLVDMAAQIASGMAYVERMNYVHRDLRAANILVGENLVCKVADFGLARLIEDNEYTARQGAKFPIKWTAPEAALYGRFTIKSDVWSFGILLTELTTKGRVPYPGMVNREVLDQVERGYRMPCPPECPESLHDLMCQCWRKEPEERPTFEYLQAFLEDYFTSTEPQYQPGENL
Sequence of PKN1 (Q16512 whole entry): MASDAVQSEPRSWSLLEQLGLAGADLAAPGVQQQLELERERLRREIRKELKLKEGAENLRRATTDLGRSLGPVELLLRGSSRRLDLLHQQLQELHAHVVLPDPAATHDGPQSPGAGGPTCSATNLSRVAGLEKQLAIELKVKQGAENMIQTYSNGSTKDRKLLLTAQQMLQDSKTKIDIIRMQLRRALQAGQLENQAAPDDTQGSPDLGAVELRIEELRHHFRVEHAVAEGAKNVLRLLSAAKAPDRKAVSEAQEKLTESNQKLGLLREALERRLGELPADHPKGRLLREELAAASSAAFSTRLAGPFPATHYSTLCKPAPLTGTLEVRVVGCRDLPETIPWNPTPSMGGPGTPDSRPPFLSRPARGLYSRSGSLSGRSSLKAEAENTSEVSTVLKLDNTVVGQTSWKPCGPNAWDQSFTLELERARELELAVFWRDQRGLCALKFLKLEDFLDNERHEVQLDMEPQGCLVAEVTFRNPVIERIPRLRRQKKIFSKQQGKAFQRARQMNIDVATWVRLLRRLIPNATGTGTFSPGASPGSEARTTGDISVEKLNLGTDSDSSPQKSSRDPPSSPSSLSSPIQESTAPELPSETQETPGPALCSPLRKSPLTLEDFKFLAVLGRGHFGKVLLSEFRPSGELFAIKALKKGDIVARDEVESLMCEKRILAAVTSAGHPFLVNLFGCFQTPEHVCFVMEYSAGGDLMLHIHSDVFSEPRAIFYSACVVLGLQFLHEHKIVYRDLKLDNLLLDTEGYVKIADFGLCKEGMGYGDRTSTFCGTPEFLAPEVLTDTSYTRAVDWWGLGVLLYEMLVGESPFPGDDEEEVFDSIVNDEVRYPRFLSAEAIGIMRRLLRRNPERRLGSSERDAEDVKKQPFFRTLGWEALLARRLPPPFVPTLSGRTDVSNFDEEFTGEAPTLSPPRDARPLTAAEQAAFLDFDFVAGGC
Sequence of PRKCE (Q02156 whole entry): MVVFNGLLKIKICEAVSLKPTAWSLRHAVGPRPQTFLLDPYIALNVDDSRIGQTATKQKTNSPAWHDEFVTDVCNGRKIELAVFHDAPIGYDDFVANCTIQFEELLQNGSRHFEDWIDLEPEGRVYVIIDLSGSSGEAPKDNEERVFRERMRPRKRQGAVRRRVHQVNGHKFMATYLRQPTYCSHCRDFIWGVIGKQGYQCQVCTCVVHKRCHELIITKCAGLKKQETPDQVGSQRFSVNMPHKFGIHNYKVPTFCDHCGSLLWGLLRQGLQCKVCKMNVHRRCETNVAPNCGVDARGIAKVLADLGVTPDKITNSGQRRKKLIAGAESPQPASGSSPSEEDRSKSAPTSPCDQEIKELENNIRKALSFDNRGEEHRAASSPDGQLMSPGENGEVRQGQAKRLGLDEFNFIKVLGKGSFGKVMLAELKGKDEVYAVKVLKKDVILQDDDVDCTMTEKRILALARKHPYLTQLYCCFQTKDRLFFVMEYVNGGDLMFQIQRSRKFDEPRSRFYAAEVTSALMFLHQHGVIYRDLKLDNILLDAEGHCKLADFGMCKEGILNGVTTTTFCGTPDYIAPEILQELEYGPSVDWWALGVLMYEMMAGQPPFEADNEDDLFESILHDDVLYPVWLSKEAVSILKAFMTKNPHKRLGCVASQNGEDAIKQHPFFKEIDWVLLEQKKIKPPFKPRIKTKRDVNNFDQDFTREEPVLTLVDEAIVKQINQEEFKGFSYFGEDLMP

Oc1ccc(C2=Cc3ccc(O)cc3OC2)cc1 [compound 1, idronoxil]
remaining binding at 10 µM [1]: 99%
remaining binding at 10 µM [2]: 77%
remaining binding at 10 µM [3]: 88%
remaining binding at 10 µM [4]: 73%
remaining binding at 10 µM [5]: 71%
remaining binding at 10 µM [6]: 84%
remaining binding at 10 µM [7]: 99%
remaining binding at 10 µM [8]: 80%
remaining binding at 10 µM [9]: 66%
remaining binding at 10 µM [10]: 79%
remaining binding at 10 µM [11]: 100%
remaining binding at 10 µM [12]: 55%
remaining binding at 10 µM [13]: 90%
remaining binding at 10 µM [14]: 92%
remaining binding at 10 µM [15]: 97%
remaining binding at 10 µM [16]: 47%
remaining binding at 10 µM [17]: 70%
remaining binding at 10 µM [18]: 26%
remaining binding at 10 µM [19]: 55%
remaining binding at 10 µM [20]: 80%
